Data published in patent US20120315658A1, “AMELIORATION OF METABOLIC SYNDROME USING PHYSIOLOGICAL FUNCTIONS OF SPHINGOMYELIN SYNTHASE SMS2, OR SCREENING METHODS FOR AMELIORATING AGENTS” (Shionogi & Co., Ltd., priority 2009, published 2012).

Tested on: ZS2/SMS2 cells
Assay: Me beta CD sensitivity test with Myriocin, viable cell number by WST-8
Format: cell-based, mouse
Settings: for effect of added lipid on cell growth inhibitory effects caused by Myriocin: Myriocin + ceramide (10 microM) or sphingomyelin (15 microM)
Experimental: 1×10^6 MEF cells are washed, and resuspended in 1 ml of serum-free RPMI 1640 medium, and treated with an appropriate concentration of Me beta CD, and cultured in 5% CO2, 37 degrees Celsius for five minutes. After 2 ml of normal medium containing myriocin are added thereto, and the cells are cultured for additional 12 hours. A reagent for measuring viable cell number containing WST-8 (Nakalai Tesque) may be used to measure survival rate of the cells.
More specifically, ZS2/SMS2 cells prepared in Example 2 are placed in 48-well plate dish at 5000 cells/0.2 ml/well (N=3). For cell culture, 0.3% FCS/OPTIPRO SFM (GIBCO) was used. In this case, Myriocin (Final concentration 5 microM) is added, or alternatively, Myriocin+ceramide (10 microM) or Myriocin+sphingomyelin (15 microM) were added thereto. Me beta CD was added at the final concentration of 2 mM, and further cultured in 5% CO2, 37 degrees Celsius for sixteen hours. A reagent for measuring viable cell number containing WST-8 (DOJINDO) was added at 10 microliter/well and further cultured in 5% CO2, 37 degrees Celsius for one hour (WST assay). The viable cell numbers were counted according to the protocol. Y axis represents a numerical value when the average value is deemed to be 100% amongst the cases in the presence and absence of Myriocin, when Me beta CD is not placed therein.

CCCCCCC(=O)CCCCCC/C=C/C[C@@H](O)[C@H](O)[C@@](N)(CO)C(=O)O [Myriocin]
further reduction of cell growth by addition of Myriocin (2 mM Me beta CD, sixteen hours, Myriocin printed as 2 mM): about 20% | viable cell number, presence versus absence of Myriocin (Me beta CD not placed therein, Myriocin 5 microM): not significant difference

ceramide
effect of added lipid on cell growth inhibitory effects caused by Myriocin (2 mM Me beta CD): almost completely inhibited the cell growth inhibitory effects caused by Myriocin

methyl-beta-cyclodextrin [Me beta CD]
reduction of cell growth by Me beta CD (2 mM Me beta CD, sixteen hours, no Myriocin): about 50%

sphingomyelin [SM]
effect of added lipid on cell growth inhibitory effects caused by Myriocin (2 mM Me beta CD): almost completely inhibited the cell growth inhibitory effects caused by Myriocin
